Measured values as given in US4383113A, “Agricultural sulfonamides” (E. I. Du Pont de Nemours and Company, priority 1981, dated 1983).

Key:
kochia = experiment: Test E pre-emergence; format: in vivo, Kochia scoparia
Source text: (§1) The containers used were 25 cm diameter plastic pots filled with fertilized and limed Fallsington silt loam. Plantings of the following weed species were made twice, at a 10-day interval: mustard (Brassica arvensis), cocklebur (Xanthium spp.), morningglory (Ipomoea hederacea), cassia (Cassia tora), velvetleaf (Abutilon theophrasti), alfalfa (used as an indicator species), kochia (Kochia scoparia), sesbania (Sesbania exaltata), Russian thistle (Salsola kali), jimsonweed (Datura stramonium),and nutsedge (Cyperus rotundus). In addition, wheat and barley were planted in separate 15 cm diameter plastic pots filled with the same soil at the time of the early planting only. All plantings were treated with the test chemicals dissolved in a non-phytotoxic solvent immediately following completion of the second planting operation. At this time, the wheat was around 15-17.5 cm tall and the barley 12.5 to 15 cm tall, both in the 2-leaf stage of growth. The weed species of the earliest planting date were from 2.5 to 12.5 cm tall. The rates of application selected were 0.004, 0.007, 0.015 and 0.030 kg/ha for the weed phase and 0.12, 0.25 and 0.50 kg/ha for wheat and barley. The post-emergence part of this test was visually rated for plant response 21 days after treatment, and the pre-emergence part 28 days after treatment.

morningglory = experiment: Test E pre-emergence; format: in vivo, Ipomoea hederacea; settings: 1/32 kg/ha
Source text: as §1

mustard [1] = experiment: Test E pre-emergence; format: in vivo, Brassica arvensis
Source text: as §1

sesbania = experiment: Test E pre-emergence; format: in vivo, Sesbania exaltata; settings: 1/64 kg/ha
Source text: as §1

alfalfa = experiment: Test E pre-emergence; format: in vivo
Source text: as §1

Russian thistle = experiment: Test E pre-emergence; format: in vivo, Salsola kali
Source text: as §1

nutsedge [2] = experiment: Test E pre-emergence; format: in vivo, Cyperus rotundus
Source text: as §1

nutsedge [3] = experiment: Test E post-emergence; format: in vivo, Cyperus rotundus
Source text: as §1

cocklebur = experiment: Test E post-emergence; format: in vivo, Xanthium spp.
Source text: as §1

mustard [4] = experiment: Test E post-emergence; format: in vivo, Brassica arvensis
Source text: as §1

barley = experiment: Test E post-emergence; format: in vivo; settings: 1/2 kg/ha
Source text: as §1

wheat = experiment: Test E post-emergence; format: in vivo; settings: 1/2 kg/ha
Source text: as §1

dewberry = experiment: Test K field post-emergence; format: in vivo; settings: 16 weeks
Experimental: (§2) The response of a number of noxious weed species to post-emergence applications of the same compound as used in Test J was studied in another field test. At the time of treatment, one month after mowing, the mixed vegetation was approximately 15 cm tall. The chemical was applied in water containing 0.2% of Surfactant WK® at an overall volume of 500 l/ha. Each treatment was replicated three times. Approximately 5 cm of rainfall was recorded 4 days after treatment and an additional 37 cm fell before weed control ratings were made 16 weeks after treatment.

broomsedge = experiment: Test K field post-emergence; format: in vivo; settings: 16 weeks
Experimental: as §2

[5] = test system: mixed vegetation, overall; experiment: Test K field post-emergence; format: in vivo; settings: 16 weeks
Experimental: as §2

broadleaves = experiment: Test K field post-emergence; format: in vivo; settings: 16 weeks
Experimental: as §2

golden rod = experiment: Test K field post-emergence; format: in vivo; settings: 16 weeks
Experimental: as §2

purpletop = experiment: Test K field post-emergence; format: in vivo; settings: 16 weeks
Experimental: as §2

poison ivy = experiment: Test K field post-emergence; format: in vivo; settings: 16 weeks
Experimental: as §2

grasses = experiment: Test K field post-emergence; format: in vivo; settings: 16 weeks
Experimental: as §2

COc1nc(NC(=O)NS(=O)(=O)c2ccccc2C(=O)OC(C)C)nc(OC)n1 [drawing 587]
response rating (kochia; 1/32 kg/ha): 10C | response rating (kochia; 1/64 kg/ha): 10C | response rating (kochia; 1/128 kg/ha): 10C | response rating (morningglory): 8G | response rating (mustard [1]; 1/32 kg/ha): 10C | response rating (mustard [1]; 1/64 kg/ha): 10C | response rating (mustard [1]; 1/128 kg/ha): 10C | response rating (sesbania): 8G | response rating (alfalfa; 1/64 kg/ha): 5G | response rating (alfalfa; 1/256 kg/ha): 5G | response rating (Russian thistle; 1/32 kg/ha): 9C | response rating (Russian thistle; 1/64 kg/ha): 7C | response rating (Russian thistle; 1/128 kg/ha): 7C | response rating (Russian thistle; 1/256 kg/ha): 5C | response rating (nutsedge [2]; 1/64 kg/ha): 9G | response rating (nutsedge [2]; 1/128 kg/ha): 8G | response rating (nutsedge [2]; 1/256 kg/ha): 7G

COc1nc(C)nc(NC(=O)NS(=O)(=O)c2ccccc2C(=O)OC(C)C)n1 [drawing 590]
response rating (nutsedge [3]; 1/32 kg/ha): 10C | response rating (nutsedge [3]; 1/256 kg/ha): 3G | response rating (cocklebur; 1/32 kg/ha): 10C | response rating (cocklebur; 1/64 kg/ha): 10C | response rating (cocklebur; 1/128 kg/ha): 10C | response rating (cocklebur; 1/256 kg/ha): 10C | response rating (mustard [4]; 1/32 kg/ha): 10C | response rating (mustard [4]; 1/64 kg/ha): 10C | response rating (mustard [4]; 1/128 kg/ha): 10C | response rating (mustard [4]; 1/256 kg/ha): 10C | response rating (barley): 5G

COc1nc(NC(=O)NS(=O)(=O)c2ccccc2C(=O)OC(C)C)nc(OC)n1 [drawing 589]
response rating (nutsedge [3]; 1/32 kg/ha): 10G | response rating (cocklebur; 1/32 kg/ha): 10C | response rating (cocklebur; 1/64 kg/ha): 10C | response rating (cocklebur; 1/128 kg/ha): 10C | response rating (cocklebur; 1/256 kg/ha): 10C | response rating (mustard [4]; 1/32 kg/ha): 10C | response rating (mustard [4]; 1/64 kg/ha): 10C | response rating (mustard [4]; 1/128 kg/ha): 10C | response rating (mustard [4]; 1/256 kg/ha): 10C | response rating (wheat): 2G

COC(=O)c1ccccc1S(=O)(=O)NC(=O)Nc1nc(C)cc(C)n1 [drawing 613]
mean % weed control (dewberry; 1.0 kg/ha): 100% | mean % weed control (dewberry; 2.0 kg/ha): 100% | mean % weed control (dewberry; .5 kg/ha): 97% | mean % weed control (broomsedge; 1.0 kg/ha): 73% | mean % weed control (broomsedge; 2.0 kg/ha): 86% | mean % weed control (broomsedge; .5 kg/ha): 71% | mean % weed control ([5]; 1.0 kg/ha): 90% | mean % weed control ([5]; 2.0 kg/ha): 94% | mean % weed control ([5]; .5 kg/ha): 81% | mean % weed control (broadleaves; 1.0 kg/ha): 96% | mean % weed control (broadleaves; 2.0 kg/ha): 98% | mean % weed control (broadleaves; .5 kg/ha): 91% | mean % weed control (golden rod; 1.0 kg/ha): 100% | mean % weed control (golden rod; 2.0 kg/ha): 100% | mean % weed control (golden rod; .5 kg/ha): 100% | mean % weed control (purpletop; 1.0 kg/ha): 80% | mean % weed control (purpletop; 2.0 kg/ha): 92% | mean % weed control (purpletop; .5 kg/ha): 73% | mean % weed control (poison ivy; 1.0 kg/ha): 85% | mean % weed control (poison ivy; 2.0 kg/ha): 95% | mean % weed control (poison ivy; .5 kg/ha): 67% | mean % weed control (grasses; 1.0 kg/ha): 84% | mean % weed control (grasses; 2.0 kg/ha): 93% | mean % weed control (grasses; .5 kg/ha): 81%
